How the values were obtained:
Δ49N-hChoKα = biological target: T1, Δ49N-hChoKα (Homo sapiens, UniProt P35790); experiment: Biochemical kinase inhibition assay (Kinase-Glo luminescent) on Δ49N-hChoKα; details: recombinant Δ49N-hChoKα 2.2 nM, ATP 5 μM, choline 5 μM, 60 min rt; read-out: ChoKα IC50
T1 construct: cDNA fragment 362-1534, corresponding to aminoacids 50 457; GST (N, cleaved yes); PreScission Protease recognition site (N); made in house; host or cells: Escherichia coli BL21pLysS (DE3)
Experimental: (§1) HumanΔ49ChoKα ([…]Δ49N-hChoKα) cDNA fragment 362-1534, corresponding to aminoacids 50 457 (J. Mol. Biol. 2006, 364, 136-151), and hChoKβ full length (FL), corresponding to aminoacids 2-395 ((PLoS ONE 2009, 4, e7819), were amplified by PCR from human library and cloned, inserting upstream a Prescission Protease recognition site, in pDonor 221 vector, using the Gateway Technology® (Invitrogen). After sequence control, LR reaction was performed in the final expression pGEX 2Tg vector. Both the proteins were expressed in Escherichia coli BL21pLysS (DE3) strain in auto-induction (Kessler) medium in the presence of […] carbenicillin at 25° C. for 16 h. Cells were harvested by centrifugation, the pellet was re-suspended in Lysis buffer (50 mM Tris-HCl pH 7.8, 150 mM NaCl, 10% glycerol, 0.2% CHAPS, 20 mM DTT, Protease Inhibitor Cocktail Tablets from Roche Biochemicals) and lysed by Gaulin homogenizer (Niro Soavi). The lysate was cleared by centrifugation. The supernatant was added to GSH resin and let flow by gravity. The GSH resin was washed with 5 column volume (CV) of cold wash buffer (50 mM Tris-HCl pH 7.8, 150 mM NaCl, 10% glycerol), then with 10 CV of the same buffer containing 2 mM of DTT. Both GST-Δ49N-hChoKα and hChoKβ were subjected to on-column cleavage of the GST tag with Prescission Protease overnight. The eluted cleaved proteins were further purified by ion exchange (ResQ 6 mL chromatography column from GE healthcare) with a gradient from 50 to 500 mM NaCl in 30 CV. The fractions containing […]Δ49N-hChoKα or hChoKβ were pooled, concentrated and gel filtered on a Superdex200 16/60 (GE Healthcare). The final protein concentration was estimated using the Bradford assay. All the samples purified were resolved by SDS-PAGE.
(§2) Biochemical Kinase inhibition Assay on Δ49N-hChoKα and hChoKβFL
(§3) The biochemical activity of compounds against Δ49N-ChoKα and ChoK3 FL were determined using the Kinase-Glo™ Luminescent Kinase Assay (Promega cat. V6711). The assay is based on incubation of the recombinant Δ49N-hChoKα and hChoKβ FL produced in house, 2.2 nM and 30 nM, respectively, with the specific substrates, choline (Sigma-Aldrich-C7017) and ATP, followed by quantification, at the end of reaction time, of the residual not reacted ATP.
(§4) Compounds were 3-fold serially diluted from 10 to 0.0005 μM, then incubated for 60 minutes at room temperature in the presence of ATP 5 μM, choline (5 μM for ChoKα and 20 μM for ChoKβ) and enzyme in a final volume of 19 μL of kinase buffer (50 mM Hepes pH 7.5, 10 mM MgCl2, 1 mM DTT, 3 μM Na3VO4 and 0.2 mg/mL BSA). The final concentration of DMSO was 1%. The assay was run in a robotized format on 384-well plates (Perkin Elmer cat. #6005301).
(§5) At the end of the incubation, an amount of 19 μL of KinaseGlo Reagent was added to each well to stop the reaction and after 30 minutes the luminescence signal was measured using ViewLux reader (Perkin Elmer).
(§6) All information about plate dilution, distribution and raw data of inhibition are tracked via barcode reading and stored in an Oracle DB. The data per each molecule are analyzed by an internally customized version of the SW package “Assay Explorer” which provides sigmoidal fittings of the ten-dilution curves for IC50 determination using a 4 parameter logistic equation: y=bottom+(top−bottom)/(1+10^((log IC50−x)*slope)) where x is the logarithm of the inhibitor concentration, y is the response; y starts at bottom and goes to top with a sigmoid shape.

hChoKβ FL = biological target: T2, hChoKβ FL (Homo sapiens, UniProt Q9Y259); experiment: Biochemical kinase inhibition assay (Kinase-Glo luminescent) on hChoKβ FL; details: recombinant hChoKβ FL 30 nM, ATP 5 μM, choline 20 μM, 60 min rt; read-out: ChoKβ IC50
T2 construct: hChoKβ full length (FL), corresponding to aminoacids 2-395; GST (N, cleaved yes); PreScission Protease recognition site (N); made in house; host or cells: Escherichia coli BL21pLysS (DE3)
Experimental: as §1, §2, §3, §4, §5, §6

T1 sequence (P35790 50-439 isoform P35790-2): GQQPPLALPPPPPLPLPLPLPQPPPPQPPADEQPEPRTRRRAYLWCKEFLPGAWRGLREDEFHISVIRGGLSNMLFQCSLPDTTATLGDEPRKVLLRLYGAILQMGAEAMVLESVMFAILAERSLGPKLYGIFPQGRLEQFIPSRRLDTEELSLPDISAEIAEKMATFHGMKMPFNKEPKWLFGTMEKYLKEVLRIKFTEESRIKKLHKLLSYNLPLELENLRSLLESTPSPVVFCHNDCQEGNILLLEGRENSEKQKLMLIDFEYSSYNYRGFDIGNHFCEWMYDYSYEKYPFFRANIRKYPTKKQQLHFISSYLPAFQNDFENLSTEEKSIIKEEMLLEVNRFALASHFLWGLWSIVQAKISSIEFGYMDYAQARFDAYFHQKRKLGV
T2 sequence (Q9Y259 2-395): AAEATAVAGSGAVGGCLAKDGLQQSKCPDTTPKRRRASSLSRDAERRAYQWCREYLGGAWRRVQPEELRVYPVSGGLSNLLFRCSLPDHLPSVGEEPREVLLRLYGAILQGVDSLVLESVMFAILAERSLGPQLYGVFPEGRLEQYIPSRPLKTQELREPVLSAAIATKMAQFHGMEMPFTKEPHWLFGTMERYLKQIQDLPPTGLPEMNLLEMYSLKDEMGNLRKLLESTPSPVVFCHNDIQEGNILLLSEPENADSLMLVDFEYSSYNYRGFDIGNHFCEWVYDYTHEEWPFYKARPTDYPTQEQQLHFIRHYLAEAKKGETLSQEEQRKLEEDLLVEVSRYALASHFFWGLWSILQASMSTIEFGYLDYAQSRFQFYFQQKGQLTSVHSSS

Row | Structure (SMILES) | IC50 (Δ49N-hChoKα) | IC50 (hChoKβ FL)
1 | CC1(C)Cc2cnc(N)nc2-c2[nH]nc(C(=O)Nc3nc(CC(=O)N4CCC(O)CC4)cs3)c21 [compound 92] | 228 nM | > 10000 nM
2 | CN(C)[C@H]1CCN(C(=O)Cc2csc(NC(=O)c3n[nH]c4c3C(C)(C)Cc3cnc(N)nc3-4)n2)C1 [compound 93] | 12 nM | 761 nM
3 | CCOC(=O)Cc1ccc(NC(=O)c2n[nH]c3c2C(C)(C)Cc2cnc(N)nc2-3)cc1 [compound 96] | 198 nM | 934 nM
4 | CC1(C)Cc2cnc(N)nc2-c2[nH]nc(C(=O)Nc3ccc(O)cc3)c21 [compound 105] | 229 nM | 398 nM
5 | CC1(C)Cc2cnc(N)nc2-c2[nH]nc(C(=O)Nc3cccc(C4OCCCO4)c3)c21 [compound 106] | 343 nM | 5200 nM
6 | CC1(C)Cc2cnc(N)nc2-c2[nH]nc(C(=O)Nc3cccc(C=O)c3)c21 [compound 107] | 737 nM | 2680 nM
7 | Cn1nc(C(=O)Nc2cccc(CN3CCC(N4CCCCC4)CC3)c2)c2c1-c1nc(N)ncc1CC2(C)C [compound 109] | 431 nM | > 10000 nM
8 | CC1CCN(C2CCN(Cc3cccc(NC(=O)c4nn(C)c5c4C(C)(C)Cc4cnc(N)nc4-5)c3)CC2)CC1 [compound 111] | 640 nM | > 10000 nM
9 | CC(C)(C)OC(=O)NC1CCN(Cc2cccc(NC(=O)c3n[nH]c4c3C(C)(C)Cc3cnc(N)nc3-4)c2)CC1 [compound 114] | 562 nM | 2390 nM
10 | CN(C)[C@@H]1CCN(C(=O)Cc2csc(NC(=O)c3n[nH]c4c3C(C)(C)Cc3cnc(N)nc3-4)n2)C1 [compound 116] | 4 nM | 77 nM
11 | COC(=O)C1(c2csc(NC(=O)c3n[nH]c4c3C(C)(C)Cc3cnc(N)nc3-4)n2)CC1 [compound 127] | 617 nM | > 10000 nM
12 | CC1(C)Cc2cnc(N)nc2-c2[nH]nc(C(=O)Nc3nc(C4(C(=O)O)CC4)cs3)c21 [compound 129] | 220 nM | > 10000 nM
13 | CN(C)[C@@H]1CCN(C(=O)C2(c3csc(NC(=O)c4n[nH]c5c4C(C)(C)Cc4cnc(N)nc4-5)n3)CC2)C1 [compound 130] | 534 nM | > 10000 nM
14 | CC1(C)Cc2cnc(N)nc2-c2[nH]nc(C(=O)Nc3nc(C4(C(=O)N5CCC(N6CCCCC6)CC5)CC4)cs3)c21 [compound 131] | 233 nM | 3940 nM
15 | CC(C)(C)OC(=O)NC1CCN(Cc2ccc(NC(=O)c3n[nH]c4c3C(C)(C)Cc3cnc(N)nc3-4)cc2)CC1 [compound 133] | 536 nM | 1440 nM
16 | Cn1nc(C(=O)Nc2nc(CN3CCC(N4CCCCC4)CC3)cs2)c2c1-c1nc(N)ncc1CC2(C)C [compound 141] | 622 nM | > 10000 nM
17 | CN(C)[C@@H]1CCN(C(=O)Cc2cccc(NC(=O)c3n[nH]c4c3C(C)(C)Cc3cnc(N)nc3-4)c2)C1 [compound 142] | 110 nM | 671 nM

The remaining lines, values ahead:

Row | IC50 (Δ49N-hChoKα) | IC50 (hChoKβ FL) | Structure (SMILES)
18 | 111 nM | 1330 nM | CC1(C)Cc2cnc(N)nc2-c2[nH]nc(C(=O)Nc3ncc(C(=O)N4CCC(N5CCCCC5)CC4)s3)c21 [compound 84]
19 | 52 nM | > 10000 nM | CNc1ncc2c(n1)-c1c(c(C(=O)Nc3nc(CC(=O)N4CCC(N5CCC(C)CC5)CC4)cs3)nn1C)C(C)(C)C2 [compound 85]
20 | 57 nM | 1390 nM | CN1CCC(NC(=O)Cc2csc(NC(=O)c3n[nH]c4c3C(C)(C)Cc3cnc(N)nc3-4)n2)CC1 [compound 86]
21 | 149 nM | > 10000 nM | CC1(C)Cc2cnc(N)nc2-c2[nH]nc(C(=O)Nc3nc(CC(=O)N4CC[C@@H](O)C4)cs3)c21 [compound 87]
22 | 141 nM | > 10000 nM | CC1(C)Cc2cnc(N)nc2-c2[nH]nc(C(=O)Nc3nc(CC(=O)N4CC[C@H](O)C4)cs3)c21 [compound 88]
23 | 10 nM | 400 nM | CN(C)C1CCN(C(=O)Cc2csc(NC(=O)c3n[nH]c4c3C(C)(C)Cc3cnc(N)nc3-4)n2)CC1 [compound 89]
24 | 161 nM | > 10000 nM | CC1(C)Cc2cnc(N)nc2-c2[nH]nc(C(=O)Nc3nc(CC(=O)N4CCC(C(N)=O)CC4)cs3)c21 [compound 90]
25 | 98 nM | > 10000 nM | CC1(C)Cc2cnc(N)nc2-c2[nH]nc(C(=O)Nc3nc(CC(=O)N4CCC(CO)CC4)cs3)c21 [compound 91]
26 | 73 nM | 1420 nM | CC1(C)Cc2cnc(N)nc2-c2[nH]nc(C(=O)Nc3nc(CC(N)=O)cs3)c21 [compound 94]
27 | 15 nM | 126 nM | CN(C)CCCNC(=O)Cc1csc(NC(=O)c2n[nH]c3c2C(C)(C)Cc2cnc(N)nc2-3)n1 [compound 95]
28 | 57 nM | 1290 nM | CC1(C)Cc2cnc(N)nc2-c2[nH]nc(C(=O)Nc3ccc(CC(=O)N4CCC(N5CCCCC5)CC4)cc3)c21 [compound 98]
29 | 5 nM | 3970 nM | Cn1nc(C(=O)Nc2nc(CC(=O)N3CCC(N4CCCCC4)CC3)cs2)c2c1-c1nc(N)ncc1CC2(C)C [compound 108]
30 | 135 nM | 2850 nM | CC1(C)Cc2cnc(N)nc2-c2[nH]nc(C(=O)Nc3cccc(CN4CCC(N5CCCCC5)CC4)c3)c21 [compound 110]
31 | 187 nM | 2130 nM | CC1CCN(C2CCN(Cc3cccc(NC(=O)c4n[nH]c5c4C(C)(C)Cc4cnc(N)nc4-5)c3)CC2)CC1 [compound 112]
32 | 16 nM | > 10000 nM | CN(C)C1CCN(Cc2ccc(NC(=O)c3nn(C)c4c3C(C)(C)Cc3cnc(N)nc3-4)cc2)CC1 [compound 117]
33 | 33 nM | 72 nM | CN(C)C1CCN(Cc2ccc(NC(=O)c3n[nH]c4c3C(C)(C)Cc3cnc(N)nc3-4)cc2)CC1 [compound 118]
34 | 53 nM | 66 nM | CNC1CCN(C(=O)Cc2csc(NC(=O)c3n[nH]c4c3C(C)(C)Cc3cnc(N)nc3-4)n2)CC1 [compound 119]
35 | 19 nM | 913 nM | CC1(C)Cc2cnc(N)nc2-c2[nH]nc(C(=O)Nc3cccc(CC(=O)N4CCC(N5CCCCC5)CC4)c3)c21 [compound 120]
36 | 18 nM | > 10000 nM | CNc1ncc2c(n1)-c1[nH]nc(C(=O)Nc3nc(CC(=O)N4CCC(N5CCCCC5)CC4)cs3)c1C(C)(C)C2 [compound 121]
37 | 11 nM | > 10000 nM | CNc1ncc2c(n1)-c1[nH]nc(C(=O)Nc3nc(CC(=O)N4CCC(N5CCC(C)CC5)CC4)cs3)c1C(C)(C)C2 [compound 122]
38 | 53 nM | > 10000 nM | CC1CCN(C2CCN(C(=O)Cc3csc(N(C)C(=O)c4n[nH]c5c4C(C)(C)Cc4cnc(N)nc4-5)n3)CC2)CC1 [compound 123]
39 | 187 nM | > 10000 nM | CN(C(=O)c1nn(C)c2c1C(C)(C)Cc1cnc(N)nc1-2)c1nc(CC(=O)N2CCC(N3CCCCC3)CC2)cs1 [compound 124]
40 | 3 nM | 592 nM | CC1(C)Cc2cnc(N)nc2-c2[nH]nc(C(=O)Nc3ccc(CNc4ccc(CN5CCC(N6CCCCC6)CC5)cc4)cc3)c21 [compound 126]
41 | 126 nM | > 10000 nM | Cn1nc(C(=O)Nc2ccc(CN3CCC(N4CCCCC4)CC3)cc2)c2c1-c1nc(N)ncc1CC2(C)C [compound 128]
